The species entered for one assay is Homo sapiens. In words: Selectivity ratio of IC50 for human CB2 receptor to IC50 for human CB1 receptor.
Assay [1] has as its target T1, Cannabinoid receptor 1 (Homo sapiens, UniProt P21554). In words: Displacement of [3H]CP-55940 from human CB1 receptor expressed in HEK293 cells at 10 uM. Format: cell-based.
Assay [2] addresses T1, Cannabinoid receptor 1. In words: Antagonist activity at human CB1 receptor expressed in HEK293 cells assessed as inhibition of Eu-GTP binding. Format: cell-based.
The target of the next assay is Cannabinoid receptor 2 (Homo sapiens, UniProt P34972). Description: Displacement of [3H]CP-55940 from human CB2 receptor expressed in HEK293 cells. Format: cell-based.
Assay [3] has as its target T1, Cannabinoid receptor 1. In words: biochemical. Format: cell-based, HEK293.

Each structure is given as a SMILES string. Some results are limits rather than exact numbers.

T1 sequence (P21554 whole entry): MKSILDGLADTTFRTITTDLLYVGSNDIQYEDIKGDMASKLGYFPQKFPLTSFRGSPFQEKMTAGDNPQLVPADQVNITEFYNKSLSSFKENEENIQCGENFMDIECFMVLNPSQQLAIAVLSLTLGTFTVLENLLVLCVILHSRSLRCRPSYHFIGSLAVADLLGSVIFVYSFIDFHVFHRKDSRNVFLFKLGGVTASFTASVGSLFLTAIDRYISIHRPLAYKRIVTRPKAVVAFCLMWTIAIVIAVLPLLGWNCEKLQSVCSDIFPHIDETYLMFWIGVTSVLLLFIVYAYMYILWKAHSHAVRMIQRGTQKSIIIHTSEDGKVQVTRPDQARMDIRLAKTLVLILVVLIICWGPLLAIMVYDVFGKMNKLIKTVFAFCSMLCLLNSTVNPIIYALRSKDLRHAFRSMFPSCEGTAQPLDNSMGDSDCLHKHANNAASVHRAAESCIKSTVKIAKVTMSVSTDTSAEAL
Cannabinoid receptor 2, sequence (P34972 whole entry): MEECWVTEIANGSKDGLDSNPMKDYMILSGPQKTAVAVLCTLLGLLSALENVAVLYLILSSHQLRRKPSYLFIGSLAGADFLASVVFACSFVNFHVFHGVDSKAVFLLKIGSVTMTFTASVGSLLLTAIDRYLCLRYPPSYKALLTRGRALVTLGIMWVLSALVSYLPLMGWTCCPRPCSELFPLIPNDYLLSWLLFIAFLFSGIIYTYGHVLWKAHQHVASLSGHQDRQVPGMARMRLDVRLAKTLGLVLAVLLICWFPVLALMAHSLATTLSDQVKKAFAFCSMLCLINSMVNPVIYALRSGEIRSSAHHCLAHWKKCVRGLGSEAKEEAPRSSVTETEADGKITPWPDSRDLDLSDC

On to `O=C(Cn1nnc(-c2ccc(Cl)cc2Cl)c1-c1ccc(Cl)cc1Cl)N1CCCCC1`, for which, in the assay filed under Homo sapiens, the Ratio IC50 is > 1000. This molecule displayed an inhibition at Cannabinoid receptor 1 [1] of 55.7%.
For `COc1ccc(CNC(=O)Cn2nc(-c3ccc(Cl)cc3Cl)c(-c3ccc(Cl)cc3Cl)n2)cc1`, at Cannabinoid receptor 1 [2], the concentration giving a half-maximal response (EC50) was determined as 56.2 nM. Besides, in the assay filed under Homo sapiens, the Ratio IC50 was > 1000. In addition, the IC50 on Cannabinoid receptor 2 is > 10000 nM.
Regarding `O=C(Cn1nnc(-c2ccc(Cl)cc2)c1-c1ccc(Cl)cc1)N1CCCCC1`, in the assay filed under Homo sapiens, the Ratio IC50 was > 1000. The same molecule returned an inhibition at Cannabinoid receptor 1 [1] of 33%.
For the molecule `O=C(Cn1nc(-c2ccc(Cl)cc2Cl)c(-c2ccc(Cl)cc2Cl)n1)N1CCCCC1`, the IC50 on Cannabinoid receptor 2 was 5900 nM.
Turning to `O=C(NC12CC3CC(CC(C3)C1)C2)n1nc(-c2ccc(Cl)cc2)c(-c2ccc(Cl)cc2Cl)n1`, the Ratio IC50 in the assay filed under Homo sapiens was > 1000. Also, the inhibition on Cannabinoid receptor 1 [1] was 34.5%.
For `CCCCOC(=O)Cn1nnc(-c2ccc(Cl)cc2)c1-c1ccc(Cl)cc1`, in the assay filed under Homo sapiens, the Ratio IC50 was > 1000. In addition, on Cannabinoid receptor 1 [1], the inhibition stood at 64.1%.
As for `O=C(NC1CCCCC1)n1nc(-c2ccc(Cl)cc2)c(-c2ccc(Cl)cc2)n1`, in the assay listed under Homo sapiens, the Ratio IC50 was > 1000. The same molecule had an inhibition at Cannabinoid receptor 1 [1] of 19.9%.
Turning to `O=C(Cn1nc(-c2ccc(Cl)cc2Cl)c(-c2ccc(Cl)cc2Cl)n1)NCc1ccccc1`, at Cannabinoid receptor 1 [2], the EC50 worked out at 87 nM. The Ratio IC50 in the assay listed under Homo sapiens was > 1000. For the same molecule, the 50% inhibitory concentration (IC50) on Cannabinoid receptor 2 is > 10000 nM.
For `O=C(Cn1nc(-c2ccc(Cl)cc2Cl)c(-c2ccc(Cl)cc2Cl)n1)NCc1ccccc1F`, at Cannabinoid receptor 1 [2], the EC50 came to 23.5 nM. For the same molecule, the Ratio IC50 in the assay listed under Homo sapiens was > 1000. In addition, on Cannabinoid receptor 2, the IC50 was > 10000 nM.
`O=C(Cn1nc(-c2ccc(Cl)cc2Cl)c(-c2ccc(Cl)cc2Cl)n1)NCc1ccc(F)cc1`: at Cannabinoid receptor 1 [2], the EC50 was 50.7 nM. The Ratio IC50 in the assay filed under Homo sapiens is > 1000. Also, the IC50 on Cannabinoid receptor 2 is > 10000 nM.
For `O=C(Cn1nc(-c2ccc(Cl)cc2)c(-c2ccc(Cl)cc2Cl)n1)NCc1ccc(F)cc1`, in that order: 235 nM, > 1000 and > 10000 nM.
In the case of `O=C(NC12CC3CC(CC(C3)C1)C2)n1nc(-c2ccc(Cl)cc2)c(-c2ccc(Cl)cc2)n1`, the Ratio IC50 in the assay filed under Homo sapiens is > 1000. For the same molecule, the inhibition on Cannabinoid receptor 1 [1] was 19.7%.
On the same counts, the results for `O=C(NC12CC3CC(CC(C3)C1)C2)n1nc(-c2ccc(Cl)cc2Cl)c(-c2ccc(Cl)cc2Cl)n1` are > 1000 and 78.9%.
`O=C(Cn1nc(-c2ccc(Cl)cc2Cl)c(-c2ccc(Cl)cc2Cl)n1)NCc1ccc(Cl)cc1`: on Cannabinoid receptor 1 [2], the EC50 stood at 17.8 nM. Also, in the assay filed under Homo sapiens, the Ratio IC50 is > 1000. In addition, the 50% inhibitory concentration (IC50) on Cannabinoid receptor 2 was > 10000 nM.
On the same counts, the results for `O=C(Cn1nc(-c2ccc(Cl)cc2)c(-c2ccc(Cl)cc2Cl)n1)NCc1ccccc1F` are 256 nM, > 1000 and > 10000 nM.
Regarding `O=C(Cn1nc(-c2ccc(Cl)cc2Cl)c(-c2ccc(Cl)cc2Cl)n1)NCc1ccccc1Cl`, the EC50 on Cannabinoid receptor 1 [2] was 12.2 nM. Moreover, the Ratio IC50 in the assay listed under Homo sapiens is > 1000. In addition, the IC50 at Cannabinoid receptor 2 is > 10000 nM.
Consider `O=C(Cn1nc(-c2ccc(Cl)cc2Cl)c(-c2ccc(Cl)cc2Cl)n1)NCc1cccc(F)c1`, for which the EC50 on Cannabinoid receptor 1 [2] stood at 35.1 nM. In addition, the Ratio IC50 in the assay listed under Homo sapiens is > 1000. Also, the IC50 at Cannabinoid receptor 2 was > 10000 nM.
As to `O=C(Cn1nc(-c2ccc(Cl)cc2Cl)c(-c2ccc(Cl)cc2Cl)n1)Nc1ccccc1`, the EC50 at Cannabinoid receptor 1 [2] was found to be 136 nM. Also, the Ratio IC50 in the assay filed under Homo sapiens is > 1000. Also, on Cannabinoid receptor 2, the IC50 is > 10000 nM.
Turning to `CCCCOC(=O)Cn1nnc(-c2ccc(Cl)cc2Cl)c1-c1ccc(Cl)cc1Cl`, in the assay filed under Homo sapiens, the Ratio IC50 was > 1000. On Cannabinoid receptor 1 [1], this molecule came in with an inhibition of 46.1%.
Regarding `O=C(Cn1nc(-c2ccc(Cl)cc2Cl)c(-c2ccc(Cl)cc2Cl)n1)NC1CCCCC1`, the concentration for a half-maximal effect (EC50) at Cannabinoid receptor 1 [2] amounted to 204 nM. The Ratio IC50 in the assay listed under Homo sapiens was > 1000. In addition, the IC50 at Cannabinoid receptor 2 is > 10000 nM.
In the case of `CCCCOC(=O)Cn1nc(-c2ccc(Cl)cc2Cl)c(-c2ccc(Cl)cc2Cl)n1`, the Ratio IC50 in the assay listed under Homo sapiens was > 1000.
Turning to `O=C(Cn1nc(-c2ccc(Cl)cc2Cl)c(-c2ccc(Cl)cc2Cl)n1)Oc1ccccc1`, the Ratio IC50 in the assay filed under Homo sapiens was > 1000. Also, the inhibition at Cannabinoid receptor 1 [1] worked out at 14.3%.
On the same counts, the results for `O=C(NC1CCCCC1)n1nc(-c2ccc(Cl)cc2)c(-c2ccc(Cl)cc2Cl)n1` are > 1000 and 30.5%.
Regarding `O=C(Cn1nc(-c2ccc(Cl)cc2Cl)c(-c2ccc(Cl)cc2Cl)n1)NCc1cc(F)ccc1F`, the EC50 at Cannabinoid receptor 1 [2] turned out to be 22 nM. Moreover, the IC50 against Cannabinoid receptor 1 [3] is 22.6 nM; at Cannabinoid receptor 2 it was > 10000 nM. In addition, the Ratio IC50 in the assay filed under Homo sapiens is > 1000.
For the molecule `O=C(Cn1nc(-c2ccc(Cl)cc2)c(-c2ccc(Cl)cc2Cl)n1)NCc1ccccc1`, the EC50 on Cannabinoid receptor 1 [2] is 216 nM. Further, the Ratio IC50 in the assay filed under Homo sapiens is > 1000. The IC50 on Cannabinoid receptor 2 is > 10000 nM.
In the case of `O=C(NC1CCCCC1)n1nc(-c2ccc(Cl)cc2Cl)c(-c2ccc(Cl)cc2Cl)n1`, the Ratio IC50 in the assay filed under Homo sapiens was > 1000. This molecule showed an inhibition on Cannabinoid receptor 1 [1] of 29.2%.
On the same counts, the results for `O=C(NCc1ccccc1)n1nc(-c2ccc(Cl)cc2)c(-c2ccc(Cl)cc2Cl)n1` are > 1000 and 18.6%.
As to `O=C(NCc1ccccc1)n1nc(-c2ccc(Cl)cc2Cl)c(-c2ccc(Cl)cc2Cl)n1`, the Ratio IC50 in the assay listed under Homo sapiens was > 1000. The molecule further showed an inhibition at Cannabinoid receptor 1 [1] of 23.8%.
